Patent US20230142026A1, “COMPOSITION FOR ENHANCING DROUGHT AND OSMOTIC STRESS RESISTANCE, AND THEIR USES” (REPUBLIC OF KOREA (MANAGEMENT : RURAL DEVELOPMENT …, priority 2019, published 2023)

Legend:
[1] = system: pABRE-DRE::fLUC with OsPP2C51 or OsPP2C68; experiment: pABRE-DRE::fLUC reporter in rice protoplasts co-expressing OsPP2C51 or OsPP2C68 (ABA signaling inhibitors); format: cell-based
From the text: In addition, in order to investigate the signal transduction process activated by the S17 compound, the dephosphorylation enzyme, OsPP2C51 or OsPP2C68 gene, which inhibits ABA signaling, and reporter transporters (pABRE-DRE::fLUC, pUbi10::rLUC) were simultaneously transiently expressed in rice protoplasts and then treated with ABA and the S17 compound to identify the expression of the reporter.

[2] = system: rice; experiment: Water loss rate of cut third leaves of compound-treated rice; format: in vivo; conditions: one day
Method: (§1) In addition, the third leaves of rice of the experimental and control groups treated with ABA (5 μM) and S17 (various concentrations, 10 and 20 μM), respectively, for one day were cut, and the water loss rate was compared therebetween. […] The amount of water in a 50-ml tube that was used for 2 days by three Dongjin rice plants which had been grown for 14 days in a nutrient solution was measured. The control group used 19.9 g of water on average for 2 days, the group treated with ABA (5 μM) used 8.7 g of water, and the groups treated with 10 μM S17 and 20 μM S17 used 14.7 g and 12.5 g of water, respectively (FIG. 2E).

[3] = system: Dongjin rice plants; experiment: Water consumption of compound-treated rice plants in 50-ml tube; format: in vivo; conditions: three 14-day plants, control 19.9 g
Method: as §1

[4] = system: pABRE-DRE::fLUC; experiment: Induction of environmental stress response: pABRE-DRE::fLUC reporter in rice protoplasts; format: cell-based; conditions: 15 hours after treatment
Method: Rice protoplasts were transiently transformed with a pABRE-DRE::fLUC transporter, which induces the expression of the reporter gene, luciferase, in response to the plant environmental stress resistance hormone ABA (abscisic acid), and were then treated with 90 kinds of compounds having a structure similar to ABA received from the Korea Chemical Bank, and a compound that enhances the expression of the reporter was selected from the compounds and referred to as “S17”.
In order to verify the effect of inducing response to environmental stress of the S17 compound compared with ABA, pABRE-DRE::fLUC and the transformation marker pUbi10::rLUC transporter were transiently expressed in rice protoplasts, and then treated with ABA and the S17 compound. After 15 hours, the degree of expression of fLUC was detected.

[5] = system: rice; experiment: Drought resistance (drying experiment) of S17-treated rice; format: in vivo
Method: An experimental group, in which rice grown in a nutrient solution for 14 days was treated with S17, was compared with an untreated control group to determine whether or not S17 induces drought resistance. 3 days after treatment with S17, the nutrient solution fed to the experimental and control plants was removed to induce drought stress. The plants were allowed to be dried (for 12 to 24 hours) and water was fed again to the control and experimental groups, and the rate of the surviving plants was measured (FIGS. 2A and 2B). […] The dry weight of the experimental group was measured. […] This is considered to be due to the effect of inhibiting growth occurring during the treatment with S17.

[6] = system: rice; experiment: Osmotic stress resistance of S17-treated rice using mannitol; format: in vivo
Method: Thus, the effects of S17 on osmotic stress were detected. Osmotic stress was induced using mannitol in 14-day-old rice after treatment with S17. The experimental group treated with 5 μM and 10 μM of S17 and the untreated control group were treated with 0 mM, 100 mM, and 200 mM of mannitol, and the growth of these plants was observed (FIG. 3A).
In addition, in order to determine the osmotic stress resistance and growth-enhancing effect, osmotic stress was induced using mannitol in 14-day-old rice treated with S17. The experimental group treated with 5 μM and 10 μM of S17 and the untreated control group were treated with 0 mM, 100 mM, and 200 mM of mannitol, and then the water consumption of these plants and the dry weight after the experiment were measured (FIG. 3). […] As the concentration of mannitol increased, the amount of water used in plants decreased due to osmotic pressure stress.

## CC1=CC(=O)CC(C)(C)[C@@]1(O)/C=C/C(C)=C\C(=O)O [ABA, abscisic acid, reference compound]
[1]
  expression of fLUC with OsPP2C51 or OsPP2C68: inhibited
[2]; ABA 5 μM
  water loss rate: decreased water loss rate
[3]; 5 μM
  amount of water used for 2 days: 8.7 g

## O=C(O)/C=C/c1ccsc1 [S17]
[4]
  degree of expression of fLUC: significantly expressed
[1]
  expression of fLUC with OsPP2C51 or OsPP2C68: induced
[5]; 14-day rice, 3 days after S17 treatment, dried 12 to 24 hours, water fed again, control 16.6%
  average survival rate: 76.7%
[5]; after drying experiment
  dry weight relative to average weight of control group: 91.5%
[2]; S17 10 and 20 μM
  water loss rate: decreased water loss rate
[3]; 10 μM
  amount of water used for 2 days: 14.7 g
[3]; 20 μM
  amount of water used for 2 days: 12.5 g
[6]; 5 μM S17, 0 mM mannitol
  water consumption rate compared to the control group: 97.5%
[6]; 5 μM S17, 100 mM mannitol
  amount of water used vs control not treated with S17: 120%
  dry weight compared to the group treated with 0 μM of S17: 101%
[6]; 5 μM S17, 200 mM mannitol
  amount of water used vs control not treated with S17: 119%
  dry weight compared to the group treated with 0 μM of S17: 106%
[6]; 5 μM S17, no mannitol
  dry weight compared to the group treated with 0 μM of S17: 97%
[6]; 5 μM and 10 μM S17, 0, 100, 200 mM mannitol
  leaf curling caused by osmotic stress: significantly reduced
[6]; 10 μM S17, 0 mM mannitol
  water consumption rate compared to the control group: 78%
[6]; 10 μM S17, 100 mM mannitol
  amount of water used vs control not treated with S17: 106%
  dry weight compared to the group treated with 0 μM of S17: 104%
[6]; 10 μM S17, 200 mM mannitol
  amount of water used vs control not treated with S17: 128%
  dry weight compared to the group treated with 0 μM of S17: 112%
[6]; 10 μM S17, no mannitol
  dry weight compared to the group treated with 0 μM of S17: 82%
